In assay [1] the test system is human umbilical vein endothelial cells (HUVEC). Description: Formation of microtubules (pseudo-tubes) by endothelial cells on matrigel. The assay is classed as cell-based. As to conditions: for Results in % (formation of pseudo-tubes): 6 hours, control medium = 100. As for the experimental part:
In this experiment, the cells are human umbilical vein endothelial cells (HUVEC) cultured in M200 medium (Invitrogen M200500) on matrigel (BD Biosciences 354234) for 6 hours. The cells are either in the medium (control medium) or treated by suramin (negative control) or treated by VEGF (positive control) or treated by Metlin® or Metlos® inulins (at 0.1%). After 6 hours of incubation, the pseudo-tubes formed are observed under the microscope and images are taken at random to be subsequently quantified (total surface of the network) by image analysis.

Assay [2] concerns EPCs (circulating endothelial progenitor cells) originating from human umbilical cord blood. As to the kind of experiment: Migration of endothelial progenitor cells through insert membrane. The assay is classed as cell-based. As to conditions: C+ medium + VEGF 10 ng/ml, 5 hours. How it is done:
The study was carried out on EPCs (circulating endothelial progenitor cells) originating from human umbilical cord blood, cultured in EGM-2 medium (Endothelial Growth medium-2).
Before the treatment, the cells are starved in 0.2% EBM-2 medium of fetal calf serum (FCS). The cells are subsequently seeded in an insert containing EGM-2 medium with 0.2% FCS, immersed in a well containing the treatment: either EGM-2 medium 0.2% FCS (negative control), or EGM-2 medium 0.2% FCS plus VEGF at 10 ng/ml (positive control), or EGM-2 medium 0.2% FCS plus the Metlin® or Metlos® inulins at 0.5% or 1%. After 5 hours of incubation, the cells inside the inserts are eliminated and those that have migrated to the other side of the insert membrane are fixed with 4% paraformaldehyde for 10 min. The cells that have migrated are subsequently counted.

Read-outs that look alike come from different tables or passages of the source.

As for `Cc1ccc(C(=O)Nc2ccc(S(=O)(=O)O)c3cc(S(=O)(=O)O)cc(S(=O)(=O)O)c23)cc1NC(=O)c1cccc(NC(=O)Nc2cccc(C(=O)Nc3cc(C(=O)Nc4ccc(S(=O)(=O)O)c5cc(S(=O)(=O)O)cc(S(=O)(=O)O)c45)ccc3C)c2)c1` [Suramin, suramin], the Number of branchings in assay [1] (C− 20 μM, 6 hours of incubation) came to 0. Besides, the “Results in % (formation of pseudo-tubes)” value in assay [1] (C− 20 μM) was 0%.

On to VEGF, for which the Number of branchings in assay [1] was determined as 18. Further, the “Results in % (formation of pseudo-tubes)” value in assay [1] (C+ 50 ng/ml) is 140%. For the same compound, in assay [2], the “Number of cells (migrated)” value is 417 and the “Results relative to C−” value was determined as 181%.

Values taken from US20210401730A1, “USE OF EXTRACTS OF AGAVE FOR A HAIR APPLICATION” (priority 2017, published 2021).
